Assay results: US4751026A, “Substituted anilides of oleic, linoleic, or linolenic acid as inhibitors of acyl-coa:cholesterol acyltransferase” (Warner-Lambert Company, priority 1987, dated 1988)

Assays:
[1] = target: T1, acyl-CoA:cholesterol acyltransferase (ACAT) (Oryctolagus cuniculus, UniProt G1SFD9); test: In vitro inhibition of ACAT: radio-labeled cholesterol oleate formed from radio-labeled oleic acid in rabbit intestinal microsomes; type: biochemical; settings: inhibition of acylation of cholesterol by oleic acid
T1 construct: in a tissue preparation containing rabbit intestinal microsomes; from tissue; host or cells: rabbit intestine, microsomes
T1 sequence (G1SFD9 1-524): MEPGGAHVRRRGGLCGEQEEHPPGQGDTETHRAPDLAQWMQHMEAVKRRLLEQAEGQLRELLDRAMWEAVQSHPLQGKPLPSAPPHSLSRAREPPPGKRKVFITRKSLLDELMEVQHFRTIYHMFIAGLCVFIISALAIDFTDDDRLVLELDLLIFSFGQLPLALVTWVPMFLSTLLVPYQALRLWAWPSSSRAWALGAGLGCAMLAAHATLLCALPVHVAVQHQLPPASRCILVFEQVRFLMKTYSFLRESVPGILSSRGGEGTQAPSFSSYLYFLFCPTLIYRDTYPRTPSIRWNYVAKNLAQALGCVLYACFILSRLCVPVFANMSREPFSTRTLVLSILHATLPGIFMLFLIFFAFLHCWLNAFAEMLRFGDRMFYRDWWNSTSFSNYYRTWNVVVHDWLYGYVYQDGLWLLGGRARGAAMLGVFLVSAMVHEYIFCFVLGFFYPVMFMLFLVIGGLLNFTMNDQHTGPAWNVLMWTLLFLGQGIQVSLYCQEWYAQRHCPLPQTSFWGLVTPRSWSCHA
Protocol: The ability of representative compounds of the present invention to inhibit ACAT was measured using an in vitro test more fully described in Field, F. J. and Salone, R. G., Biochemica et Biophysica 712: 557-570 (1982). The test assesses the ability of a test compound to inhibit the acylation of cholesterol by oleic acid by measuring the amount of radio-labeled cholesterol oleate formed from radio-labeled oleic acid in a tissue preparation containing rabbit intestinal microsomes.
The data appear in Table 1 where they are expressed as IC50 values; i.e. the concentration of test compound required to inhibit 50% […] of the enzyme.

Serum LDL Cholesterol = test: In vivo serum cholesterol lowering in cholesterol-fed rabbits; parameters: species or system Male, New Zealand white rabbits; settings: cholesterol-enriched diet, oral 50 mg/kg thirty minutes prior to each meal for seven days, three hours after last meal
Text: Male, New Zealand white rabbits weighing approximately 1 kg were fed a normal diet 40 g per day of rabbit chow (Purina No. 5321, Ralston Purina Co., 711 West Fuesser Road, Mascoutah, Ill., 62224, USA). After six days on this diet, the rabbits were fed 50 g per day for three days of a cholsterol-enriched diet consisting of one part of a cholesterol-containing chow (Purina Catalog No. 841206WLI, 0.25% cholesterol) and two parts of normal chow. Next, the rabbits were fed 60 g per day for four days of a cholsterol-enriched diet consisting of two parts of a cholesterol-containing chow (Purina Catalog No. 814206WLI, 0.25% cholesterol) and one part of normal chow.
After this meal adaptation and cholesterol loading period, the test compounds of this invention were administered to the test animals in oral doses of 50 mg/kg of body weight thirty minutes prior to each meal for seven days. Control animals were administered vehicle only.
The animals were sacrificed three hours after their last meal in the postabsorptive state. Serum cholesterol levels were determined for each animal, and the data appear in Table 2 expressed as percent change in serum cholesterol level compared to control.

Compound	IC50 [1]	Percent Change in Serum LDL Cholesterol From Control (Serum LDL Cholesterol)
CCCCC/C=C\C/C=C\CCCCCCCC(=O)Nc1c(OC)cc(OC)cc1OC [(Z,Z)-N-(2,4,6-Trimethoxyphenyl)-9,12-octadecadienamide]	0.042 µM	–
CC/C=C\C/C=C\C/C=C\CCCCCCCC(=O)Nc1c(OC)cc(OC)cc1OC [(Z,Z,Z)-N-(2,4,6-Trimethoxyphenyl)-9,12,15-octadecatrienamide]	0.086 µM	–
CCCCCCCC/C=C\CCCCCCCC(=O)Nc1c(OC)cc(OC)cc1OC [(Z)-N-(2,4,6-Trimethoxyphenyl)-9-octadecenamide]	0.06 µM	-53%
